# Results as given in patent US20200216432A1, “SULFONAMIDE DERIVATIVES AS STAT3 INHIBITORS FOR THE TREATMENT OF PROLIFERATIVE DISEASES” (King's College London, priority 2017, published 2020).
# pIC50: −log10 of the molar value. Square brackets hold non-standard residues; d marks the D form. Peptide text beside a SMILES is read from it. pY = N[C@@H](Cc1ccc(OP(=O)(O)O)cc1)C(=O)O
# Experiments:
# [1] = test system: A4 (STAT3-null) cancer cell line; test: MTT cell viability assay, A4; format: cell-based
# Excerpt: (§1) MTT Cell viability assay with both MDA-MB-231 breast (STAT3-dependent) and A4 (STAT3-null) cancer cell lines.
# (§2) After observing significant STAT3 dimerisation inhibitory activity in the preliminary FP assay, the target ligand and related fragments were progressed to an MTT cytotoxicity assay to evaluate in a STAT3-dependent tumour cell line (MDA MB 231, breast cancer) and a STAT3 null A4 cell line. It was anticipated that the compounds would show selective toxicity towards the STAT3-dependent MDA MB 231 cell line and would have lost activity in the STAT3 null A4 cell line if the mechanism of action was STAT3-mediated.
# (§3) For each cell line, a total of 10,000 cells were seeded for 24 hours before addition of the inhibitors. The cells were grown in normal cell culture conditions at 37° C. under a 5% CO2 humidified atmosphere using an appropriate medium. The cell count was adjusted to 10^5 cells/ml, and 5,000-20,000 cells were added per well depending on the cell line. The cells were then incubated for 24 hours, and 1 μl aliquots of the inhibitors were added to the wells in triplicate. […] Absorbance was quantified by spectrophotometry at A=570 nm (Envision™ Plate Reader, PerkinElmer™, USA). IC50 values were calculated by a dose-response analysis using the Prism GraphPad Prism® software package.
# [2] = molecular target: unphosphorylated STAT3 monomer (uSTAT3) SH2 domain (Homo sapiens, UniProt P40763); test: Fluorescence polarisation assay for the inhibition of STAT3 dimerisation; format: binding; settings: 350 nM uSTAT3, 10 nM FAM-pYLPQTV, 100 μM ligand; average of triplicate
# Excerpt: Fluorescence Polarisation Assay for the Inhibition of STAT3 Dimerisation
# The compounds were subjected to an in vitro fluorescent polarisation (FP)-based primary PPI binding screen to assess their ability to inhibit STAT3 dimerisation by interacting with the SH2 domain. In this FP assay, the unphosphorylated STAT3 monomer (uSTAT3) and a surrogate peptide FAM-pYLPQTV were used to form a ‘pseudo-dimer’. The assay is based on the concept that the compounds were expected to displace the surrogate peptide from the uSTAT3 resulting in a fluorescent read out.
# Specifically, for the FP assay, a black (CORNING™) 96 well plate was thoroughly washed with distilled water and allowed to dry. A 100 nM FAM-pYLPQTV working solution was prepared from 10 μM FAM-pYLPQTV stock solution (in DMSO) using PBS pH 7.4 Buffer. 10 μl FAM-pYLPQTV was added to 350 nM uSTAT3 protein, the final concentration of protein in each well, in 90 μl PBS buffer pH 7.4. The MP value of the surrogate dimer complex was measured using a fluorescent plate reader (Envision™, Perkin Elmer™, USA), which provided the base MP value. The inhibitor solution was then added to the well and the assay plate was placed on a shaker for 5 minutes. The MP value for each well was then measured again. A shift in fluorescent values was observed due to displacement of the fluorescently-labelled surrogate peptide by the inhibitors, and the average inhibition for each inhibitor could be calculated as described below:
# Base MP value (X) for each well=MP value of Protein and Probe (350 nm STAT3+10 nM FAM-pYLPQTV)−MP value of free FAM-pYLPQTV
# Inhibitor MP value (Y) for each well=MP value of Protein+Probe+Inhibitor (350 nm uSTAT3+10 nM FAM-pYLPQTV+2 μL Inhibitor)−MP value of free FAM-pYLPQTV with 2 μL DMSO
# % inhibition by any ligand/peptide=(X−Y)/X*100
# For comparison purpose, the % inhibition produced by 100 μM pYLKTKF was considered to be 100%, and the inhibition produced by different ligands was reported as relative to 100 μM pYLKTKF.
# % Inhibition produced by 100 μM pYLKTKF=A
# % Inhibition produced by 100 μM Ligand=B
# Relative inhibition (%)=B/A*100
# The experiment was carried out in triplicate, and average values were taken as the measure of PPI inhibition.
# [3] = test system: MDA-MB-231 breast (STAT3-dependent) cancer cell line; test: MTT cell viability assay, MDA-MB-231; format: cell-based, human; settings: for pIC50: MTT, 48 hours exposure (table title); for Selectivity ratio: STAT3-null A4 versus STAT3-dependent MDA-MB-231
# Excerpt: as §1, §2, §3
# Sequence of unphosphorylated STAT3 monomer (uSTAT3) SH2 domain (P40763 whole entry, the tested form may be a part): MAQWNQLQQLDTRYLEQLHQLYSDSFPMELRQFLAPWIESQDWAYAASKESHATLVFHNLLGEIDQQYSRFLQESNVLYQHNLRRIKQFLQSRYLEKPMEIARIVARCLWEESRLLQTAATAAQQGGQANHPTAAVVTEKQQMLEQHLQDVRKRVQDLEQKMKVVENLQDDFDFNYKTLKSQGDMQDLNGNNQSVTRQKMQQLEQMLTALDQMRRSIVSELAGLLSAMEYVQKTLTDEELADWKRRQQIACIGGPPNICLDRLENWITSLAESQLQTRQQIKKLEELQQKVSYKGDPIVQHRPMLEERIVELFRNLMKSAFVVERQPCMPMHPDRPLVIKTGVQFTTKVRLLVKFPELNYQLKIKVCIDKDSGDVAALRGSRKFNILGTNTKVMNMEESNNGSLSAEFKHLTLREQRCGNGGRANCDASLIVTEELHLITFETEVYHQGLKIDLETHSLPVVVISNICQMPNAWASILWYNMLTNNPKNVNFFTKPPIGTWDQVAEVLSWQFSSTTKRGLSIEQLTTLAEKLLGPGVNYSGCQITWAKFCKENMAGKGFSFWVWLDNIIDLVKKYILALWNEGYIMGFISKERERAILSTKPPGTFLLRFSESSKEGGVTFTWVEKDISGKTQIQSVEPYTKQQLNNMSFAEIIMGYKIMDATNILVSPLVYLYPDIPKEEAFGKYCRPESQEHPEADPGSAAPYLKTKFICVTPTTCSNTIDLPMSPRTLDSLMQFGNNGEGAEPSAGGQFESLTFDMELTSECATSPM
pIC50 ([1]; exposure (table title)),inhibition at 100 µM [2] [%],"pIC50 ([3]; Homo sapiens, MDA-MB-231, 48 h)",pIC50 ([1]; 48 hours exposure (table title)),% Inhibition [2] [%],pIC50 [3],Compound,Selectivity ratio [3],cytotoxicity in the MTT assay ([3]; highest concentration (100 μM) evaluated)
4.08,19.5,4.61,–,–,–,"COC(=O)c1ccc(N(C)S(=O)(=O)c2cc(C(=O)Nc3ccc(N4CCOCC4)nc3)sc2Br)cc1 [Compound 30, methyl 4-((2-bromo-N-methyl-5-((6-morpholinopyridin-3-yl)carbamoyl)thiophene)-3-sulfonamido)benzoate]",3.34,–
4.19,22.7,4.63,–,–,–,"COC(=O)c1ccc(N(C)S(=O)(=O)c2cc(C(=O)Nc3ccc(N4CCCCC4)cc3)sc2Br)cc1 [Compound 21, methyl 4-((2-bromo-N-methyl-5-((4-(piperidin-1-yl)phenyl)carbamoyl)thiophene)-3-sulfonamido)benzoate]",2.75,–
4.18,58.3,5.12,–,–,–,"COC(=O)c1ccc(N(C)S(=O)(=O)c2cc(C(=O)Nc3ccc(OCCN4CCOCC4)cc3)sc2-c2ccc(N3CCN(C)CC3)nc2)cc1 [Compound 11, methyl 4-((N-methyl-2-(6-(4-methylpiperazin-1-yl)pyridin-3-yl)-5-((4-(2-morpholinoethoxy)phenyl)carbamoyl)thiophene)-3-sulfonamido)benzoate]",8.84,–
4.34,29.1,5.11,–,–,–,"COC(=O)c1ccc(N(C)S(=O)(=O)c2cc(C(=O)Nc3ccc4c(ccn4C)c3)sc2Br)cc1 [Compound 36, methyl 4-((2-bromo-N-methyl-5-((1-methyl-1H-indol-5-yl)carbamoyl)thiophene)-3-sulfonamido)benzoate]",5.80,–
4.61,27.3,4.49,–,–,–,"COC(=O)c1ccc(N(C)S(=O)(=O)c2cc(C(=O)NCc3ccc(CN4CCOCC4)cc3)sc2Br)cc1 [Compound 31, methyl 4-((2-bromo-N-methyl-5-((4-(morpholinomethyl)benzyl)carbamoyl)thiophene)-3-sulfonamido)benzoate]",0.76,–
4.12,59.4,5.57,–,–,–,"COC(=O)c1ccc(N(C)S(=O)(=O)c2cc(C(=O)NCc3ccc(CN4CCCCC4)cc3)sc2-c2ccc(N3CCOCC3)cc2)cc1 [Compound 1, methyl 4-((N-methyl-2-(4-morpholinophenyl)-5-((4-(piperidin-1-ylmethyl)benzyl)carbamoyl)thiophene)-3-sulfonamido)benzoate]",28.13,–
4.05,54.1,5.54,–,–,–,"COC(=O)c1ccc(N(C)S(=O)(=O)c2cc(C(=O)Nc3ccc(OCCN4CCOCC4)cc3)sc2-c2ccc(N3CCOCC3)cc2)cc1 [Compound 9, methyl 4-((N-methyl-5-((4-(2-morpholinoethoxy)phenyl)carbamoyl)-2-(4-morpholinophenyl)thiophene)-3-sulfonamido)benzoate]",31.21,–
4.13,11.7,4.46,–,–,–,"COC(=O)c1ccc(N(C)S(=O)(=O)c2cc(C(=O)Nc3cccc(N4CCOCC4)c3)sc2Br)cc1 [Compound 22, methyl 4-((2-bromo-N-methyl-5-((3-morpholinophenyl)carbamoyl)thiophene)-3-sulfonamido)benzoate]",2.13,–
4.25,30.2,5.25,–,–,–,"COC(=O)c1ccc(N(C)S(=O)(=O)c2cc(C(=O)NCc3ccc(CN4CCCC4)cc3)sc2Br)cc1 [Compound 37, methyl 4-((2-bromo-N-methyl-5-((4-(pyrrolidin-1-ylmethyl)benzyl)carbamoyl)thiophene)-3-sulfonamido)benzoate]",9.85,–
4.19,40.6,5.19,–,–,–,"COC(=O)c1ccc(N(C)S(=O)(=O)c2cc(C(=O)NCc3ccc(CN4CCCCC4)cc3)sc2-c2ccc(C(=O)N3CCN(C)CC3)cc2)cc1 [Compound 7, methyl 4-((N-methyl-2-(4-(4-methylpiperazine-1-carbonyl)phenyl)-5-((4-(piperidin-1-ylmethyl)benzyl)carbamoyl)thiophene)-3-sulfonamido)benzoate]",10.01,–
4.13,6.18,5.12,–,–,–,"COC(=O)c1ccc(N(C)S(=O)(=O)c2cc(C(=O)NCc3ccc(N4CCN(C)CC4)cc3)sc2Br)cc1 [Compound 32, methyl 4-((2-bromo-N-methyl-5-((4-(4-methylpiperazin-1-yl)benzyl)carbamoyl)thiophene)-3-sulfonamido)benzoate]",9.73,–
–,–,–,4.36,36.44,5.32,"COC(=O)c1ccc(N(C)S(=O)(=O)c2cc(C(=O)Nc3ccc(N4CCN(C(=O)c5cc6ccccc6o5)CC4)cc3)sc2Br)cc1 [Compound 39, methyl 4-((5-((4-(4-(benzofuran-2-carbonyl)piperazin-1-yl)phenyl)carbamoyl)-2-bromo-N-methylthiophene)-3-sulfonamido)benzoate]",–,–
4.27,29.2,4.94,–,–,–,"COC(=O)c1ccc(N(C)S(=O)(=O)c2cc(C(=O)Nc3cccc(-c4csc(C)n4)c3)sc2Br)cc1 [Compound 38, methyl 4-((2-bromo-N-methyl-5-((3-(2-methylthiazol-4-yl)phenyl)carbamoyl)thiophene)-3-sulfonamido)benzoate]",4.67,–
4.46,43.7,5.49,–,–,–,"COC(=O)c1ccc(N(C)S(=O)(=O)c2cc(C(=O)Nc3cccc(N4CCCCC4)c3)sc2-c2ccc(N3CCCCC3)cc2)cc1 [Compound 19, methyl 4-((N-methyl-2-(4-(piperidin-1-yl)phenyl)-5-((3-(piperidin-1-yl)phenyl)carbamoyl)thiophene)-3-sulfonamido)benzoate]",10.81,–
4.18,32.3,4.73,–,–,–,"C[C@@H]1CC(=O)c2c(ccc3c2C(=O)c2cccc(O)c2C3=O)C1 [STA-21, reference compound]",3.5,–
4.27,31.3,4.90,–,–,–,"COC(=O)c1ccc(N(C)S(=O)(=O)c2cc(C(=O)Nc3ccc(CN4CCOCC4)cc3)sc2Br)cc1 [Compound 23, methyl 4-((2-bromo-N-methyl-5-((4-(morpholinomethyl)phenyl)carbamoyl)thiophene)-3-sulfonamido)benzoate]",4.34,–
–,41.6,–,–,–,–,"CC(C)C[C@H](NC(=O)[C@@H](N)Cc1ccc(OP(=O)(O)O)cc1)C(=O)N[C@@H](CCCCN)C(=O)N[C@H](C(=O)N[C@@H](CCCCN)C(=O)N[C@@H](Cc1ccccc1)C(=O)O)[C@@H](C)O [pYLKTKF, reference compound] (H-[pY]LKTKF-OH)",–,did not show any cytotoxicity
–,47.1,–,–,–,–,"COC(=O)c1ccc(N(C)S(=O)(=O)c2cc(C(=O)Nc3ccc4c(ccn4Cc4ccccc4)c3)sc2Br)cc1 [Compound 40, methyl 4-((5-((1-benzyl-1H-indo1-5-yl)carbamoyl)-2-bromo-N-methylthiophene)-3-sulfonamido)benzoate]",–,–
